Assay results as given in patent US7060683B2, “Hydroxamate-containing cysteine and serine protease inhibitors” (Cephalon, Inc., priority 1998, dated 2006).

Target: T1, Recombinant human calpain I (Homo sapiens, UniProt P07384)
T1 construct: made in house
T1 sequence (P07384 1-714): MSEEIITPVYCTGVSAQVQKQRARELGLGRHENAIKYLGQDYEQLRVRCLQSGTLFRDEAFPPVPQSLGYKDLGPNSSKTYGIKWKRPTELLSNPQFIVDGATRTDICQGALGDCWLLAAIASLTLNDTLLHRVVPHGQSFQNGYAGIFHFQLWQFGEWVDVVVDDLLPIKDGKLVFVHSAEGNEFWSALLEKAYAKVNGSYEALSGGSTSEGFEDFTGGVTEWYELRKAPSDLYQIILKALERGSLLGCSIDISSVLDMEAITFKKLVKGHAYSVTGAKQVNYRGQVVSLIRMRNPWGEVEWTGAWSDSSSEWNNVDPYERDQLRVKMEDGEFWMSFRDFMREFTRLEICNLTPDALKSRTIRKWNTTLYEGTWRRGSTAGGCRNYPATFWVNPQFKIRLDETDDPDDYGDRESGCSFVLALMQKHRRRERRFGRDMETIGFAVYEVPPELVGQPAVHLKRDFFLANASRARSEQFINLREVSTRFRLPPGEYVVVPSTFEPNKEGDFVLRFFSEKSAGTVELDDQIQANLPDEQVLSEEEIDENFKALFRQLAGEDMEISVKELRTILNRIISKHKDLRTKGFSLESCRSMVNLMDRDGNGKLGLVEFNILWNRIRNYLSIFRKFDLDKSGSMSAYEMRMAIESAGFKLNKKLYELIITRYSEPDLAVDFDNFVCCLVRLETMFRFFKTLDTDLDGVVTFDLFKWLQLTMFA
T1 sequence (P04632 1-268 partner): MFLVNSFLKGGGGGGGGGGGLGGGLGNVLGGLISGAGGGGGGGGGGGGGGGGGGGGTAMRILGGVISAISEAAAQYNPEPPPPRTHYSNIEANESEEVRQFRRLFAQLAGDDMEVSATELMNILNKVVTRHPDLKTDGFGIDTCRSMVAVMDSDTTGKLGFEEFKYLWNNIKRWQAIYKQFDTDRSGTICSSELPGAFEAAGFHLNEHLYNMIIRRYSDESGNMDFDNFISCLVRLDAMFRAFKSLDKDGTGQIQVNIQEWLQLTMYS
Test: Inhibition of Calpain (Succ-Leu-Tyr-MNA substrate hydrolysis)
Format: biochemical
Conditions: 0.2 mM Succ-Leu-Tyr-MNA, pH 7.5, five to seven concentrations
Method: To evaluate inhibitory activity, stock solutions (40 times concentrated) of each compound to be tested were prepared in 100% anhydrous DMSO and 5 μL of each inhibitor preparation were aliquoted into each of three wells of a 96-well plate. Recombinant human calpain I, prepared by the method of Meyer et al. (Biochem., J. 1996, 314: 511–519), was diluted into assay buffer (i.e., 50 mM Tris, 50 mM NaCl, 1 mM EDTA, 1 mM EGTA, and 5 mM β-mercaptoethanol, pH 7.5, including 0.2 mM Succ-Leu-Tyr-MNA), and 175 μl was aliquoted into the same wells containing the independent inhibitor stocks as well as to positive control wells containing 5 μl DMSO, but no compound. To start the reaction, 20 μl of 50 mM CaCl2 in assay buffer was added to all wells of the plate, excepting three, which were used as background signal baseline controls. Substrate hydrolysis was monitored every 5 minutes for a total of 30 minutes.
Inhibition of calpain I activity was calculated as the percent decrease in the rate of substrate hydrolysis in the presence of inhibitor relative to the rate in its absence. Comparison between the inhibited and control rates was made within the linear range for substrate hydrolysis. The IC50s of inhibitors (concentration yielding 50% inhibition) were determined from the percent decrease in rates of substrate hydrolysis in the presence of five to seven different concentrations of the test compound. The results were plotted as percent inhibition versus log inhibitor concentration, and the IC50 was calculated by fitting the data to the four-parameter logistic equation shown below using the program GraphPad Prism (GraphPad Software, Inc., San Diego, Calif.). y=d+[(a−d)/(1+(x/c)^b)]
The parameters a, b, c, and d are defined as follows: a is % inhibition in the absence of inbibitor, b is the slope, c is the IC50, and d is the % innibition at an infinite concentration of inhibitor.

| IC50 [nM] | Compound |
| --- | --- |
| 10 | CONC(=O)C(=O)[C@H](Cc1ccccc1)NC(=O)[C@H](CC(C)C)NC(=O)OCc1ccccc1 [Example 1, Cbz-Leu-Phe-CONHOCH3] |
| 19 | CCONC(=O)C(=O)[C@H](Cc1ccccc1)NC(=O)[C@H](CC(C)C)NC(=O)OCc1ccccc1 [Example 2, Cbz-Leu-Phe-CONHOEt] |
| 6 | CC(C)C[C@H](NC(=O)OCc1ccccc1)C(=O)N[C@@H](Cc1ccccc1)C(=O)C(=O)NOCc1ccccc1 [Example 3, Cbz-Leu-Phe-CONHOBn] |
| 17 | CC(C)C[C@H](NC(=O)OCc1ccccc1)C(=O)N[C@@H](Cc1ccccc1)C(=O)C(=O)NOCc1c(F)c(F)c(F)c(F)c1F [Example 4, Cbz-Leu-Phe-CONHOCH2C6F5] |
| 26 | CC(C)C[C@H](NC(=O)OCc1ccccc1)C(=O)N[C@@H](Cc1ccccc1)C(=O)C(=O)NOC(C)(C)C [Example 5, Cbz-Leu-Phe-CONHOtBu] |
| 21 | CC(C)C[C@H](NC(=O)OCc1ccccc1)C(=O)N[C@@H](Cc1ccccc1)C(=O)C(=O)NOC1CCC(C)CC1 (stereo partly drawn) [Example 6, Cbz-Leu-Phe-CONHO(4-methylcyclohexane)] |
| 152 | COC[C@H](NC(=O)[C@@H](COCc1ccccc1)NS(C)(=O)=O)C(=O)C(=O)NOCc1ccccc1 [Example 7, CH3SO2-D-Ser(Bn)-Ser(Me)-CONHOBn] |
| 28 | CS(=O)(=O)N[C@H](COCc1ccccc1)C(=O)N[C@@H](Cc1ccccc1)C(=O)C(=O)NOCc1ccccc1 [Example 8, CH3SO2-D-Ser(Bn)-Phe-CONHOBn] |
| 56 | CCONC(=O)C(=O)[C@H](Cc1ccccc1)NC(=O)[C@@H](COCc1ccccc1)NS(C)(=O)=O [Example 9] |
| 21 | CCCC[C@H](NC(=O)[C@@H](NC(=O)OCc1ccccc1)C(C)C)C(=O)C(=O)NOCc1ccccc1 [Example 11, Cbz-Val-Nle-CONHOBn] |
| 20 | CONC(=O)C(=O)[C@H](Cc1ccccc1)NC(=O)[C@H](CC(C)C)NC(=O)[C@H](CC(C)C)NC(=O)OCc1ccccc1 [Example 12, Cbz-Leu-Leu-Phe-CONHOCH3] |
| 17 | CC(C)C[C@H](NC(=O)OCc1ccccc1)C(=O)N[C@@H](CC(C)C)C(=O)N[C@@H](Cc1ccccc1)C(=O)C(=O)NOCc1ccccc1 [Example 13, Cbz-Leu-Leu-Phe-CONHOBn] |

| Compound | IC50 [nM] |
| --- | --- |
| CCCCONC(=O)C(=O)[C@H](Cc1ccccc1)NC(=O)[C@H](CC(C)C)NC(=O)OCc1ccccc1 [Example 14, Cbz-Leu-Phe-CONHOBu] | 183 |
| CCCC[C@H](NC(=O)[C@H](Cc1ccccc1)NC(=O)c1ccccc1)C(=O)C(=O)NOCC [Example 15, PhCO-Phe-Nle-CONHOEt] | 193 |
